The nature of data set [1]: Pharmacokinetics / absolute bioavailability in male Sprague Dawley rats. The class given is in vivo. The following applies: for AUC(0-inf): rat; for AUC(0-inf) / AUCinf: plasma. The procedure:
Twenty-one (21) male Sprague Dawley rats (purchased from Shanghai Laboratory Animal Center Co., Ltd., Shanghai, China) were randomized into 7 groups (3 animals per group). The animals fasted overnight, the forms of Compound 1 shown in Table 7 were administered by oral gavage, and the animals were fed 4 hours post-dose.
Blood was serially collected from each animal at 0 (pre-dose), 0.083, 0.25, 0.5, 1, 2, 4, 8, and 24 h post-dose. For each collection, the animal was restrained manually, and approximately 150 μL of blood sample was collected via the tail vein into K2EDTA tubes. Plasma samples were stored at approximately −70° C. until analysis.
To enable the calculation of absolute bioavailability, Compound 1 was formulated as a solution in 10% N-methyl-2-pyrrolidone, 10% Solutol HS 15, and 80% saline and administered at 1 mg/kg as intravenous (IV) bolus dose to a separate group of male Sprague Dawley rats, and blood samples were collected at similar timepoints to those shown above. Further, plasma samples were obtained from the collected samples and stored at approximately −70° C. until analysis.
The concentration of Compound 1 in the plasma samples was determined by LC-MS/MS analysis.
A 20 μL aliquot of each plasma sample was mixed with 200 μL of acetonitrile containing glipizide as an internal standard (40 ng/mL). The resulting mixture was vortexed at 1500 rpm for 2 min and centrifuged at 5800 rpm for 10 min. A 1 μL sample from the supernatant was injected into LC-MS/MS.
LC-MS/MS analysis was conducted on a UPLC/MS-MS (API 6500+) system under the conditions outlined in Table 8
The absolute bioavailability of each form of Compound 1 was determined by dividing the AUCinf of the form in question by the AUCinf obtained historical data by IV administration of Compound 1.

A short description of another data set: pH solubility in buffers. The class given is physicochemical. The following applies: for pH (24 h): pH of solution at 24 h; for solubility / solubility at 2 h: 37 °C. How it is done:
(§1) Solubility samples were prepared by weighing about 10 mg of each salt and adding 1 mL of media and vortexed briefly to obtain suspensions. […] For such instances, the solubility is calculated as greater than (>).
(§2) The sample vials were capped and wrapped in aluminum foil, and placed on a shaker at 37° C. The shaker was set at about 100 rpm and vials were removed at specified time points. The vials were observed, and the supernatants were transferred to Eppendorf tubes and centrifuged at 3K for 10 minutes. The clear supernatants were transferred to HPLC vials. The samples were diluted prior to HPLC analysis using the dilution media by 2× or used without dilution. pH was measured of the 24 hour timepoint after centrifugation using a micro pH probe.
(§3) • pH 2 buffer USP: Mixed 50 mL of 0.2M potassium chloride and 13 mL 0.2M HCl, diluted to 200 mL with water. • pH 4.5 buffer USP: 5.44 g of potassium dihydrogen phosphate was diluted to 1000 mL with water. • pH 6.8 buffer USP: Mixed 50 mL of 0.2M potassium phosphate and 22.4 mL 0.2M sodium hydroxide. Diluted with water to 200 mL. • SGF: 2.0109 g of NaCl was dissolved in water, added 7 mL of conc. HCl and diluted to 1 L. • FeSSIF: 4.0321 g of NaOH and 11.8726 g of NaCl were dissolved in water, added 8.65 mL of glacial acetic acid, adjusted the pH to 5.0 and diluted to 1 L. • FaSSIF: 0.4247 g of NaOH, 3.9548 g of sodium phosphate monobasic monohydrate and 6.1900 g of NaCl were dissolved in water, adjusted the pH to 6.5 and diluted to 1 L.
(§4) At each time point, the solution was analyzed by HPLC and residue was vacuum dried and analyzed by XRPD. The pH of the solution was measured at 24 hours.

The nature of data set [2]: Kinetic solubility in biorelevant media. Type of data set: physicochemical. The procedure: as §1, §2
as §3, with “adjusted the pH to 5.0 and diluted to 1 L. • FaSSIF:” left out
(§5) Kinetic solubility was determined in biorelevant media. At each time point, the solution was analyzed by HPLC. The solid residue was analyzed by XRPD at selected time points. The pH of the solution was measured at 24 hours.

A short description of data set [3]: XRPD of solid residue from solubility samples (salt disproportionation). Type of data set: physicochemical. As to conditions: FaSSIF residue. The procedure:
as §4, §5

Data set [4] is described as follows: Dynamic vapor sorption (moisture uptake). As to conditions: 25° C. Type of data set: physicochemical. How it is done: Dynamic Vapor Sorption (DVS) was carried out using a TA Instruments Q5000 Dynamic Vapor Sorption analyzer. The instrument was calibrated with standard weights and a sodium bromide standard for humidity. Approximately 10-25 mg of sample was loaded into a metal-coated quartz pan for analysis. […] The movement from one step to the next occurred either after satisfying the equilibrium criterion of 0.01% weight change or, if the equilibrium criterion was not met, after one hour. The percent weight change values were calculated using Microsoft Excel®.

Setting [5] is: from 5% to 95% relative humidity.
Setting [6] is: from 2% to 95% relative humidity.

Values after ≈ are worked out from the molar mass of the structure shown. Bounds are passed on as bounds.

In the case of `Cn1c2nc(Cc3cc[nH]n3)sc2c2cnn(Cc3cccc(N)n3)c(=O)c21` [Compound 1, 2-((1H-pyrazol-3-yl)methyl)-6-((6-aminopyridin-2-yl)methyl)-4-methyl-4,6-dihydro-5H-thiazolo[5′,4′:4,5]pyrrolo[2,3-d]pyridazin-5-one], the “Absolute % F” value in data set [1] (IV administration (historical), 1 mg/kg, reference) stood at 100%. This compound also returned an AUC(0-inf) in data set [1] (iv, 1 mg/kg, IV bolus (historical)) of 1560 ng·h/mL.

For the compound `Cn1c2nc(Cc3cc[nH]n3)sc2c2cnn(Cc3cccc(N)n3)c(=O)c21` [Form B], the “dissolution in 0.1N HCl” value in the data set “pH solubility in buffers” (0.1N HCl) is “dissolved instantly”. For the same compound, the “pH (24 h)” value in the data set “pH solubility in buffers” (0.1 N HCl) came out at 1.44; in the data set “pH solubility in buffers” (pH 2 (USP)), 2.26; in the data set “pH solubility in buffers” (pH 4.5 (USP)) it was 4.01; in the data set “pH solubility in buffers” (pH 6.8 (USP)) it was 5.09; in data set [2] (FaSSIF pH 6.5, pH of solution at 24 h), 3.39; in data set [2] (FeSSIF pH 5.0, pH of solution at 24 h), 4.79. The “pH (24 h)” value in data set [2] (SGF pH 1.2, pH of solution at 24 h) is given as 1.0. For the same compound, the solubility in “pH solubility in buffers” (0.1 n hcl, dissolved instantly, estimated by adding 100 uL aliquots, read-out: solubility) is above 16700 µg/mL; in “pH solubility in buffers” (pH 2 (USP), 2 h, 120 min), 2590 µg/mL (≈ 6600 µM); in “pH solubility in buffers” (pH 2 (USP), 24 h, 1440 min) it was 2400 µg/mL (≈ 6120 µM); in the data set “pH solubility in buffers” (pH 4.5 (USP), 24 h, 1440 min), 270 µg/mL (≈ 688 µM); in “pH solubility in buffers” (pH 6.8 (USP), 24 h, 1440 min), 10 µg/mL (≈ 25.5 µM); in data set [2] (FaSSIF pH 6.5, 10 min, 37 °C, 10 min) it was 0.38 (suspect) mg/mL. Moreover, the solubility in data set [2] (FaSSIF pH 6.5, 30 min, 37 °C, 30 min) is listed as 0.36 (suspect) mg/mL; in data set [2] (FaSSIF pH 6.5, 1 h, 37 °C, 60 min), 0.24 mg/mL (≈ 612 µM); in data set [2] (FaSSIF pH 6.5, 2 h, 37 °C, 120 min) it was 0.57 mg/mL (≈ 1450 µM); in data set [2] (FaSSIF pH 6.5, 4 h, 37 °C, 240 min) it was 1.40 (suspect) mg/mL; in data set [2] (FaSSIF pH 6.5, 24 h, 37 °C, 1440 min), 0.70 mg/mL (≈ 1780 µM); in data set [2] (FeSSIF pH 5.0, 1 h, 37 °C, 60 min), 0.08 mg/mL (≈ 204 µM). The solubility in data set [2] (sgf, pH 1.2, SGF pH 1.2, 37 °C, dissolved instantly, from total volume of media added, read-out: solubility) is above 10 mg/mL. Moreover, the solubility at 2 h amounted to 70 µg/mL (≈ 178 µM) in the data set “pH solubility in buffers” (ph 4.5 buffer (usp), pH 4.5, pH 4.5 (USP), 2 h); 30 µg/mL (≈ 76.4 µM) in “pH solubility in buffers” (ph 6.8 buffer (usp), pH 6.8, pH 6.8 (USP), 2 h); 110 µg/mL (≈ 280 µM) in data set [2] (fessif, pH 5, FeSSIF pH 5.0, 2 h, 37 °C). Further, the solubility at 10 min in data set [2] (fessif, pH 5, FeSSIF pH 5.0, 10 min, 37 °C) turned out to be 340 µg/mL (≈ 866 µM). In data set [2] (fessif, pH 5, FeSSIF pH 5.0, 30 min, 37 °C), the solubility at 0.5 h amounted to 130 µg/mL (≈ 331 µM). This compound gave a solubility at 4 h in data set [2] (fessif, pH 5, FeSSIF pH 5.0, 4 h, 37 °C) of 100 µg/mL (≈ 255 µM). In data set [2] (fessif, pH 5, FeSSIF pH 5.0, 24 h, 37 °C), this compound had a solubility at 24 h of 60 µg/mL (≈ 153 µM). Moreover, the “dissolution in SGF” value in data set [2] (simulated gastric fluid (SGF)) is reported as “dissolved instantly”. Further, the “salt disproportionation by XRPD” value in data set [3] is on record as “some salt remained”. In data set [1] (oral gavage, 10 mg/kg), the “absolute bioavailability, comparison with other forms” value is given as “higher than the measured bioavailability of the other forms of Compound 1”. This compound also registered an AUCinf in data set [1] (oral gavage, 10 mg/kg, fasted overnight) of 10846 ng·h/mL. For the same compound, in data set [1] (oral gavage, 10 mg/kg, vs historical IV AUCinf, 10 mg/kg), the “Absolute % F” value stood at 70%. The “moisture uptake (DVS)” value in data set [4] (setting [5]) was “about 0.9%”.

On to `Cn1c2nc(Cc3cc[nH]n3)sc2c2cnn(Cc3cccc(N)n3)c(=O)c21` [Form D-1], for which, in data set [4] (setting [5]), the “moisture uptake (DVS)” value is “about 2.8%”.

Regarding `Cn1c2nc(Cc3cc[nH]n3)sc2c2cnn(Cc3cccc(N)n3)c(=O)c21` [Form D-2], in data set [4] (setting [6]), the “moisture uptake (DVS)” value is reported as “about 1.1%”.

`Cn1c2nc(Cc3cc[nH]n3)sc2c2cnn(Cc3cccc(N)n3)c(=O)c21` [Form E] returned an AUCinf in data set [1] (oral gavage, 10 mg/kg, fasted overnight, listed as Free Base Hydrate Form E (wet milled)) of 7378 ng·h/mL. For the same compound, the “Absolute % F” value in data set [1] (oral gavage, 10 mg/kg, vs historical IV AUCinf, listed as Free Base Hydrate Form E (Unmilled), 10 mg/kg) is 45%; in data set [1] (oral gavage, 10 mg/kg, vs historical IV AUCinf, listed as Free Base Hydrate Form E (wet milled), 10 mg/kg) it was 47%. Further, the AUC(0-inf) in data set [1] (po, 10 mg/kg, oral gavage, fasted overnight) came to 6960 ng·h/mL. The “moisture uptake (DVS)” value in data set [4] (setting [5]) is reported as “about 1.3%”.

Consider `Cn1c2nc(Cc3cc[nH]n3)sc2c2cnn(Cc3cccc(N)n3)c(=O)c21.O=C(O)C(O)C(O)C(=O)O` [Form I], for which the “moisture uptake (DVS)” value in data set [4] (setting [6]) is “about 10.5%”.

Values taken from patent US20260335314A1, “CRYSTALLINE SALTS OR AMORPHOUS FORMS OF 2-((1H-PYRAZOL-3-YL)METHYL)-6-((6-AMINOPYRIDIN-2-YL)METHYL)-4-METHYL-4,6-DIHYDRO -5H-THIAZOLO[5',4':4,5]PYRROLO[2,3-D]PYRIDAZIN-5-ONE” (Agios Pharmaceuticals, Inc., priority 2023, published 2026).
